Measurements published in US9226500B2, “Pesticidal compositions and processes related thereto” (Dow AgroSciences LLC, priority 2012, dated 2016).

Tested on: Beet Armyworm (Spodoptera exigua)
Test: Bioassay on Beet Armyworm (BAW), 128-well diet tray assay
Format: in vivo
Conditions: Table 3, Assays Results Part 1
Method: Certain molecules disclosed in this document were tested against BAW, CEW and CL using procedures described in the following examples. In the reporting of the results, the “BAW & CEW & CL Rating Table” was used (See Table Section).
Bioassays on BAW (Spodoptera exigua)
Bioassays on BAW were conducted using a 128-well diet tray assay. One to five second instar BAW larvae were placed in each well (3 mL) of the diet tray that had been previously filled with 1 mL of artificial diet to which 50 μg/cm^2 of the test compound (dissolved in 50 μL of 90:10 acetone-water mixture) had been applied (to each of eight wells) and then allowed to dry. Trays were covered with a clear self-adhesive cover, and held at 25° C., 14:10 light-dark for five to seven days. Percent mortality was recorded for the larvae in each well; activity in the eight wells was then averaged. The results are indicated in the tables entitled “Table 3: Assay Results Part 1” and “Table 4: Assay Results Part 2” (See Table Section).

Structure (SMILES)	BAW Rating
Cc1cc(/C=C/C(c2cc(Cl)cc(Cl)c2)C(F)(F)F)ccc1C(=O)NCc1nnc(C2CC2)o1 (stereo not shown) [AC89, (E)-N-((5-Cyclopropyl-1,3,4-oxadiazol-2-yl)methyl)-4-(3-(3,5-dichlorophenyl)-4,4,4-trifluorobut-1-en-1-yl)-2-methylbenzamide]	A (50-100)
FC(F)(F)CNC(=S)CNC(=S)c1ccc(/C=C/C(c2cc(Cl)c(Cl)c(Cl)c2)C(F)(F)F)cc1Br (stereo not shown) [AC90, (E)-2-Bromo-N-(2-thioxo-2-((2,2,2-trifluoroethyl)amino)ethyl)-4-(4,4,4-trifluoro-3-(3,4,5-trichlorophenyl)but-1-en-1-yl)benzothioamide]	A (50-100)
O=C(CNC(=S)c1ccc(/C=C/C(c2cc(Cl)c(Cl)c(Cl)c2)C(F)(F)F)cc1Br)NCC(F)(F)F (stereo not shown) [AC91, (E)-2-(2-Bromo-4-(4,4,4-trifluoro-3-(3,4,5-trichlorophenyl)but-1-en-1-yl)phenylthioamido)-N-(2,2,2-trifluoroethyl)acetamide]	A (50-100)
Cc1cc(/C=C\C(c2cc(Cl)cc(Cl)c2)C(F)(F)F)ccc1C(=O)NCC(=O)NC1CC1 (stereo not shown) [AC93]	A (50-100)
O=C(CNC(=O)c1ccc(/C=C\C(c2cc(Cl)c(Cl)c(Cl)c2)C(F)(F)F)cc1Br)NCC(F)(F)F (stereo not shown) [AC95, (Z)-2-Bromo-N-(2-oxo-2-((2,2,2-trifluoroethyl)amino)ethyl)-4-(4,4,4-trifluoro-3-(3,4,5-trichlorophenyl)but-1-en-1-yl)benzamide]	A (50-100)
O=C(CNC(=O)c1ccc(/C=C/C(c2cc(Cl)c(F)c(Cl)c2)C(F)(F)F)cc1[N+](=O)[O-])NCC(F)(F)F (stereo not shown) [AC98]	A (50-100)
O=C(CNC(=O)c1ccc(/C=C/C(c2ccc(F)c(Cl)c2)C(F)(F)F)cc1Br)NCC(F)(F)F (stereo not shown) [AC99]	A (50-100)
CC(=O)N1CCC(NC(=O)c2ccc(/C=C/C(c3cc(Cl)c(Cl)c(Cl)c3)C(F)(F)F)cc2Br)CC1 (stereo not shown) [AC103, (E)-N-(1-Acetylpiperidin-4-yl)-2-bromo-4-(4,4,4-trifluoro-3-(3,4,5-trichlorophenyl)but-1-en-1-yl)benzamide]	A (50-100)
O=C(NC1CCN(C(=O)CC(F)(F)F)CC1)c1ccc(/C=C/C(c2cc(Cl)c(Cl)c(Cl)c2)C(F)(F)F)cc1Br (stereo not shown) [AC104, (E)-2-Bromo-4-(4,4,4-trifluoro-3-(3,4,5-trichlorophenyl)but-1-en-1-yl)-N-(1-(3,3,3-trifluoropropanoyl)piperidin-4-yl)benzamide]	A (50-100)
CN1CCC(NC(=O)c2ccc(/C=C/C(c3cc(Cl)c(Cl)c(Cl)c3)C(F)(F)F)cc2Br)CC1 (stereo not shown) [AC106, (E)-2-Bromo-N-(1-methylpiperidin-4-yl)-4-(4,4,4-trifluoro-3-(3,4,5-trichlorophenyl)but-1-en-1-yl)benzamide]	A (50-100)
N#CCN1CCC(NC(=O)c2ccc(/C=C/C(c3cc(Cl)c(Cl)c(Cl)c3)C(F)(F)F)cc2Br)CC1 (stereo not shown) [AC107]	B (More than 0-Less than 50)
O=C(NC1CCN(C2COC2)CC1)c1ccc(/C=C/C(c2cc(Cl)c(Cl)c(Cl)c2)C(F)(F)F)cc1Br (stereo not shown) [AC108]	B (More than 0-Less than 50)
CONC(=O)CNC(=O)c1ccc(/C=C/C(c2cc(Cl)c(Cl)c(Cl)c2)C(F)(F)F)cc1Br (stereo not shown) [AC110]	A (50-100)
C=CCNC(=O)CNC(=O)c1ccc(/C=C/C(c2cc(Cl)c(Cl)c(Cl)c2)C(F)(F)F)cc1Br (stereo not shown) [AC111]	A (50-100)
O=C(NCCc1ccc(Cl)nc1)c1ccc(/C=C/C(c2cc(Cl)c(Cl)c(Cl)c2)C(F)(F)F)cc1Br (stereo not shown) [AC113]	B (More than 0-Less than 50)
O=C(NC1CCNCC1)c1ccc(/C=C/C(c2cc(Cl)c(Cl)c(Cl)c2)C(F)(F)F)cc1Br (stereo not shown) [AC114, (E)-2-Bromo-N-(piperidin-4-yl)-4-(4,4,4-trifluoro-3-(3,4,5-trichlorophenyl)but-1-en-1-yl)benzamide]	A (50-100)
Cc1cc(/C=C/C(c2cc(Cl)cc(Cl)c2)C(F)(F)F)ccc1C(=S)NCc1ccc(Cl)nc1 (stereo not shown) [AC115, (E)-N-((6-Chloropyridin-3-yl)methyl)-4-(3-(3,5-dichlorophenyl)-4,4,4-trifluorobut-1-en-1-yl)-2-methylbenzothioamide]	A (50-100)
Cc1cc(/C=C/C(c2cc(Cl)cc(Cl)c2)C(F)(F)F)ccc1C(=O)N(C)Cc1ccc(Cl)nc1 (stereo not shown) [AC117]	A (50-100)
Cc1cc(/C=C/C(c2cc(Cl)cc(Cl)c2)C(F)(F)F)ccc1C(=O)NCC1CCCO1 (stereo not shown) [AC118]	A (50-100)
O=C(CC(F)(F)F)NC1CCCc2cc(/C=C/C(c3cc(Cl)c(Cl)c(Cl)c3)C(F)(F)F)ccc21 (stereo not shown) [BC5]	A (50-100)
O=C(NC1CCc2cc(/C=C/C(c3cc(Cl)c(Cl)c(Cl)c3)C(F)(F)F)ccc21)C1CC1 (stereo not shown) [BC6]	A (50-100)
O=C(NC1CCCc2cc(/C=C/C(c3cc(Cl)c(Cl)c(Cl)c3)C(F)(F)F)ccc21)C1CC1 (stereo not shown) [BC7]	A (50-100)
O=C(CC(F)(F)F)NC1CCc2cc(/C=C/C(c3cc(Cl)c(F)c(Cl)c3)C(F)(F)F)ccc21 (stereo not shown) [BC8]	A (50-100)
O=C(Cc1ccc(Cl)nc1)NC1CCc2cc(/C=C/C(c3cc(Cl)c(F)c(Cl)c3)C(F)(F)F)ccc21 (stereo not shown) [BC9]	A (50-100)
Fc1c(Cl)cc(C(/C=C/c2ccc3c(c2)CCC3NCCC(F)(F)F)C(F)(F)F)cc1Cl (stereo not shown) [BC10, (E)-5-(3-(3,5-Dichloro-4-fluorophenyl)-4,4,4-trifluorobut-1-en-1-yl)-N-(3,3,3-trifluoropropyl)-2,3-dihydro-1H-inden-1-amine]	A (50-100)

Structure (SMILES)	BAW Rating
O=C(CC(F)(F)F)NCC(=O)n1ccc2cc(/C=C/C(c3cc(Cl)c(F)c(Cl)c3)C(F)(F)F)ccc21 (stereo not shown) [BC13, (E)-N-(2-(5-(3-(3,5-Dichloro-4-fluorophenyl)-4,4,4-trifluorobut-1-en-1-yl)-1H-indol-1-yl)-2-oxoethyl)-3,3,3-trifluoropropanamide]	A (50-100)
O=C(Cn1ncc2cc(/C=C/C(c3cc(Cl)c(F)c(Cl)c3)C(F)(F)F)ccc2c1=O)NCC(F)(F)F (stereo not shown) [BC14, (E)-2-(6-(3-(3,5-Dichloro-4-fluorophenyl)-4,4,4-trifluorobut-1-en-1-yl)-1-oxophthalazin-2(1H)-yl)-N-(2,2,2-trifluoroethyl)acetamide]	A (50-100)
O=C(NCc1ccc(/C=C/C(c2cc(Cl)cc(Cl)c2)C(F)(F)F)cc1)C1CC1 (stereo not shown) [CC2]	A (50-100)
O=C(CC(F)(F)F)NCc1ccc(/C=C/C(c2cc(Cl)cc(Cl)c2)C(F)(F)F)cc1 (stereo not shown) [CC3]	A (50-100)
CCC(=O)NCc1ccc(/C=C/C(c2cc(Cl)cc(Cl)c2)C(F)(F)F)cc1 (stereo not shown) [CC4]	A (50-100)
O=C(NCc1ccc(/C=C/C(c2cc(Cl)c(Cl)c(Cl)c2)C(F)(F)F)cc1)C1CC1 (stereo not shown) [CC5]	A (50-100)
O=C(CC(F)(F)F)NCc1ccc(/C=C/C(c2cc(Cl)c(Cl)c(Cl)c2)C(F)(F)F)cc1 (stereo not shown) [CC6]	A (50-100)
CC(=O)NCc1ccc(/C=C/C(c2cc(Cl)cc(Cl)c2)C(F)(F)F)cc1Cl (stereo not shown) [CC7, (E)-N-(2-Chloro-4-(3-(3,5-dichlorophenyl)-4,4,4-trifluorobut-1-en-1-yl)benzyl)acetamide]	A (50-100)
O=C(NCc1ccc(/C=C/C(c2cc(Cl)cc(Cl)c2)C(F)(F)F)cc1Cl)C1CC1 (stereo not shown) [CC8]	A (50-100)
O=C(CC(F)(F)F)NCc1ccc(/C=C/C(c2cc(Cl)cc(Cl)c2)C(F)(F)F)cc1Cl (stereo not shown) [CC9]	A (50-100)
O=C(NCc1ccc(/C=C/C(c2cc(Cl)c(Cl)c(Cl)c2)C(F)(F)F)cc1Cl)C1CC1 (stereo not shown) [CC11]	A (50-100)
O=C(Cc1ccc(Cl)nc1)NCc1ccc(/C=C/C(c2cc(Cl)c(Cl)c(Cl)c2)C(F)(F)F)cc1Cl (stereo not shown) [CC14]	A (50-100)
O=C(NCc1ccc(/C=C/C(c2cc(Cl)c(F)c(Cl)c2)C(F)(F)F)cc1Cl)C1CC1 (stereo not shown) [CC15]	A (50-100)
O=C(NCc1ccc(/C=C/C(c2ccc(Cl)c(Cl)c2)C(F)(F)F)cc1Cl)C1CC1 (stereo not shown) [CC17]	A (50-100)
O=C(CC(F)(F)F)NCc1ccc(/C=C/C(c2ccc(Cl)c(Cl)c2)C(F)(F)F)cc1Cl (stereo not shown) [CC18]	A (50-100)
CSCCC(=O)NCc1ccc(/C=C/C(c2cc(Cl)c(Cl)c(Cl)c2)C(F)(F)F)cc1Cl (stereo not shown) [CC19]	A (50-100)
FC(F)(F)C(/C=C/c1ccc(CNC(=S)C2CC2)c(Cl)c1)c1cc(Cl)c(Cl)c(Cl)c1 (stereo not shown) [CC20]	A (50-100)
O=C(NCc1ccc(/C=C/C(c2cc(Cl)cc(Cl)c2)C(F)(F)F)cc1C(F)(F)F)C1CC1 (stereo not shown) [CC21]	A (50-100)
O=C(NCc1ccc(/C=C/C(c2cc(Cl)c(Cl)c(Cl)c2)C(F)(F)F)cc1C(F)(F)F)C1CC1 (stereo not shown) [CC22]	A (50-100)
O=C(CC(F)(F)F)NCc1ccc(/C=C/C(c2cc(Cl)c(Cl)c(Cl)c2)C(F)(F)F)cc1C(F)(F)F (stereo not shown) [CC24]	A (50-100)
O=C(CC(F)(F)F)NCc1ccc(/C=C/C(c2cc(Cl)c(Cl)c(Cl)c2)C(F)(F)F)cc1Br (stereo not shown) [CC25]	A (50-100)
O=C(NCc1ccc(/C=C/C(c2cc(Cl)c(Cl)c(Cl)c2)C(F)(F)F)cc1Br)C1CC1 (stereo not shown) [CC26]	A (50-100)
O=C(CC(F)(F)F)NCc1ccc(/C=C/C(c2cc(Cl)c(Cl)c(Cl)c2)C(F)(F)F)cc1F (stereo not shown) [CC27]	A (50-100)
O=C(NCc1ccc(/C=C/C(c2cc(Cl)c(Cl)c(Cl)c2)C(F)(F)F)cc1F)C1CC1 (stereo not shown) [CC28]	A (50-100)
